Experiments:
Format in all cases: in vivo
[1] = tested on: Abutilon theophrasti (ABUTH); assay: Adjuvant efficacy with nicosulfuron, glasshouse spray test; conditions: nicosulfuron WG, mean over 15 and 60 g/ha and 3 replicates; adjuvant 0.2% v/v (none in No Adjuvant rows); % leaf area killed, 21 days after application; Tests 1-4 separate runs
Experimental: (§1) The efficacy of adjuvants 1-12 as adjuvants for the herbicide nicosulfuron were tested in a glasshouse against four weed species sown into standard soil in pots and cultivated under controlled conditions in a glasshouse (at 24/18° C. day/night; 16 hours light; 65% humidity). Nicosulfuron was added to the spray tank as a standard WG (water dispersible granule) formulation.
(§2) The spray tests were also carried out using nicosulfuron in conjunction with adjuvants 1-12. The adjuvant was added to the spray solution at a rate of 0.2% v/v. All spray solutions also contained 12.5% v/v of iso-Propanol. The weed species and their BBCH growth stage at spraying were Abutilon theophrasti (ABUTH; growth stage 13), Chenopodium album (CHEAL; growth stage 13-14), Digitaria sanguinalis (DIGSA; growth stage 11), and Setaria viridis (SETVI; growth stage 13). Each spray test was replicated three times. The test plants were then grown in a glasshouse under controlled conditions (at 24/18° C. day/night; 16 hours light; 65% humidity) and watered twice a day. The efficacy of the herbicide was assessed visually and expressed as a percentage of the leaf area killed. Samples were assessed at a time period of 21 days following application. The results shown in Table 1 below are mean averages over the two rates of nicosulfuron, and the three replicates.

[2] = tested on: Chenopodium album (CHEAL); assay: as above; conditions: nicosulfuron WG, mean over 15 and 60 g/ha and 3 replicates; adjuvant 0.2% v/v (none in No Adjuvant rows); % leaf area killed, 21 days after application; Tests 1-4 separate runs
Experimental: as §1, §2

[3] = tested on: Digitaria sanguinalis (DIGSA); assay: as above; conditions: nicosulfuron WG, mean over 15 and 60 g/ha and 3 replicates; adjuvant 0.2% v/v (none in No Adjuvant rows); % leaf area killed, 21 days after application; Tests 1-4 separate runs
Experimental: as §1, §2

Setaria viridis (SETVI) [4] = assay: as above; conditions: nicosulfuron WG, mean over 15 and 60 g/ha and 3 replicates; adjuvant 0.2% v/v (none in No Adjuvant rows); % leaf area killed, 21 days after application; Tests 1-4 separate runs
Experimental: as §1, §2

[5] = tested on: four weed species (ABUTH, CHEAL, DIGSA, SETVI); assay: Adjuvant efficacy with nicosulfuron, glasshouse spray test, average over all species; conditions: nicosulfuron WG, mean over 15 and 60 g/ha, adjuvant 0.2% v/v (none in No Adjuvant rows), 21 days, average of ABUTH
Experimental: as §1, §2

[6] = tested on: Digitaria sanguinalis (DIGSA); assay: Adjuvant efficacy with mesotrione, glasshouse spray test; conditions: mesotrione SC, mean over 30 and 60 g/ha and 3 replicates; adjuvant 0.2% v/v (none in No Adjuvant rows); % leaf area killed, 21 days after application; Tests 1-4 separate runs
Experimental: (§3) The efficacy of adjuvants 1-12 as an adjuvant for the herbicide mesotrione was tested in a glasshouse against four weed species sown into standard soil in pots and cultivated under controlled conditions in a glasshouse (at 24/18° C. day/night; 16 hours light; 65% humidity). Mesotrione was added to the spray tank as a standard SC (suspension concentrate) formulation.
(§4) The spray tests were also carried out using mesotrione in conjunction with adjuvants 1-12. The adjuvants were added to the spray solution at a rate of 0.2% v/v unless otherwise stated. All spray solutions also contained 10% w/w of iso-Propanol. The weed species and their BBCH growth stage at spraying were Brachiaria platyphylla (BRAPP; growth stage 13-14) or Brachiaria plantaginea (BRAPL; growth stage 13-14), Commelina benghalensis (COMBE; growth stage 13), Digitaria sanguinalis (DIGSA; growth stage 14), and Polygonum convolvulus (POLCO; growth stage 13-14). Each spray test was replicated three times.
(§5) The test plants were then grown in a glasshouse under controlled conditions (at 24/18° C. day/night; 16 hours light; 65% humidity) and watered twice a day. The efficacy of the herbicide was assessed visually and expressed as a percentage of the leaf area killed. Samples were assessed at a time period of 21 days following application. The results shown in Table 3 below are mean averages over the two rates of mesotrione and the three replicates.

[7] = tested on: Polygonum convolvulus (POLCO); assay: as above; conditions: mesotrione SC, mean over 30 and 60 g/ha and 3 replicates; adjuvant 0.2% v/v (none in No Adjuvant rows); % leaf area killed, 21 days after application; Tests 1-4 separate runs
Experimental: as §3, §4, §5

[8] = tested on: Alopecurus myosuroides (ALOMY); assay: Adjuvant efficacy with pinoxaden, glasshouse spray test; conditions: pinoxaden EC, mean over 7.5 and 15 g/ha and 3 replicates; adjuvant 0.2% v/v (none in No Adjuvant rows); % leaf area killed, 21 days after application; Tests 1-4 separate runs
Experimental: (§6) The efficacy of adjuvants 1-12 as adjuvants for the herbicide pinoxaden were tested in a glasshouse against four weed species, sown into standard soil in pots and cultivated under controlled conditions in a glasshouse (at 20/16° C. day/night; 16 hours light; 65% humidity). Pinoxaden was added to the spray tank as a standard EC (emulsifiable concentrate) formulation.
(§7) The spray tests were also carried out using pinoxaden in conjunction with adjuvants 1-12. The adjuvants were added to the spray solution at a rate of 0.2% v/v unless otherwise stated. All spray solutions also contained 10% w/w of iso-Propanol. The weed species and their BBCH growth stage at spraying were Avena fatua (AVEFA; growth stage 12), Lolium perenne (LOLPE; growth stage 13), Alopecurus myosuroides (ALOMY; growth stage 13), and Setaria viridis (SETVI; growth stage 13-14). Each spray test was replicated three times. The test plants were then grown in a glasshouse under controlled conditions (at 20/16° C. day/night; 16 hours light; 65% humidity) and watered twice a day. The efficacy of the herbicide was assessed visually and expressed as a percentage of the leaf area killed. Samples were assessed at a time period of 21 days following application. The results shown in Table 4 below are mean averages over the two rates of pinoxaden, and the three replicates.

Avena fatua (AVEFA) = assay: as above; conditions: pinoxaden EC, mean over 7.5 and 15 g/ha and 3 replicates; adjuvant 0.2% v/v (none in No Adjuvant rows); % leaf area killed, 21 days after application; Tests 1-4 separate runs
Experimental: as §6, §7

Lolium perenne (LOLPE) = assay: as above; conditions: pinoxaden EC, mean over 7.5 and 15 g/ha and 3 replicates; adjuvant 0.2% v/v (none in No Adjuvant rows); % leaf area killed, 21 days after application; Tests 1-4 separate runs
Experimental: as §6, §7

Setaria viridis (SETVI) [9] = assay: as above; conditions: pinoxaden EC, mean over 7.5 and 15 g/ha and 3 replicates; adjuvant 0.2% v/v (none in No Adjuvant rows); % leaf area killed, 21 days after application; Tests 1-4 separate runs
Experimental: as §6, §7

[10] = tested on: four weed species (ALOMY, AVEFA, LOLPE, SETVI); assay: Adjuvant efficacy with pinoxaden, glasshouse spray test, average over all species; conditions: pinoxaden EC, mean over 7.5 and 15 g/ha, adjuvant 0.2% v/v (none in No Adjuvant rows), 21 days, average of ALOMY
Experimental: as §6, §7

| Structure (SMILES) | Mean % Herbicidal Activity ABUTH [1] [%] | Mean % Herbicidal Activity CHEAL [2] [%] | Mean % Herbicidal Activity DIGSA [3] [%] | Mean % Herbicidal Activity SETVI (Setaria viridis (SETVI) [4]) [%] | Mean % Herbicidal Activity Average over all Species [5] [%] | Mean % Herbicidal Activity DIGSA [6] [%] | Mean % Herbicidal Activity POLCO [7] [%] | Mean % Herbicidal Activity ALOMY [8] [%] | Mean % Herbicidal Activity AVEFA (Avena fatua (AVEFA)) [%] | Mean % Herbicidal Activity LOLPE (Lolium perenne (LOLPE)) [%] | Mean % Herbicidal Activity SETVI (Setaria viridis (SETVI) [9]) [%] | Mean % Herbicidal Activity Average over all Species [10] [%] |
| --- | --- | --- | --- | --- | --- | --- | --- | --- | --- | --- | --- | --- |
| CCCCCCCCCOc1cc(OCCOCCOCCOCCOCCOCCOCCOC)ncn1 [Adjuvant 4] | 48 | 78 | 70 | 94 | 73 | 83 | 93 | 18 | 78 | 30 | 82 | 52 |
| CCCCCCCCCCCCOc1cc(OCCOCCOCCOCCOCCOCCOCCOC)ncn1 [Adjuvant 6] | 38 | 83 | 74 | 91 | 71 | 83 | 84 | 23 | 82 | 62 | 87 | 63 |
| CCCCCCCCCCCCOc1cc(OCC(C)OCC(C)OCC(C)OC)ncn1 (stereo not drawn) [Adjuvant 12] | 66 | 83 | 93 | 96 | 85 | 84 | 98 | 23 | 87 | 76 | 94 | 70 |
| CCCCCCCCC=CCCCCCCCCOc1cc(OCCOCCOCCOCCOCCOCCOCCOCCOCCOCCOCCOCCOCCOCCOCCOCCOCCOCCOCCOCCOC)ncn1 [Adjuvant 11] | 64 | 82 | 88 | 94 | 82 | 83 | 92 | 11 | 41 | 15 | 84 | 38 |

Source: patent publication US11439148B2, “Pyrimidine derivatives” (SYNGENTA PARTICIPATIONS AG, priority 2017, dated 2022)
